The values that follow come from BindingDB's records for doi:10.1021/jm00107a033 (Virginia Commonwealth University, 1991).

Structures are written as SMILES.

One experiment can be described thus: Binding affinity towards sigma receptor in guinea pig cerebral homogenate using [3H]DTG as radioligand.
What is called Ki is a dissociation constant, usually derived from enzyme kinetics or from competition with a known ligand. Lower therefore signals higher affinity. With `C[C@H](Cc1ccccc1)NCCOc1ccccc1`, the inhibition constant (Ki) was determined as 45 nM. The same measure, in the same setting: to `CCN[C@H](C)Cc1ccccc1` [Adiparthrol] belongs 660 nM; to `C[C@@H](Cc1ccccc1)NCCCCc1ccccc1` [((S)-1-Methyl-2-phenyl-ethyl)-(4-phenyl-butyl)-amine], 6.6 nM; to `C[C@H](Cc1ccccc1)NCCC(=O)c1ccccc1`, 56 nM. Molecule `C[C@@H](Cc1ccccc1)NCCc1ccccc1` [((S)-1-Methyl-2-phenyl-ethyl)-phenethyl-amine] came in with a Ki of 31 nM. As for `C=CCN1CCC2(C)c3cc(O)ccc3CC1C2C` (stereo not drawn) [3-Allyl-8-hydroxy-6,11-dimethyl-1,2,3,4,5,6-hexahydro-2,6-methano-benzo[d]azocinium], the inhibition constant (Ki) turned out to be 429 nM. Molecule `C[C@H](Cc1ccccc1)NCc1ccccc1` [N-Benzylamphetamine (Bam)] came in with an inhibitory constant (Ki) of 117 nM. As to `CC(Cc1ccccc1)NCCCCc1ccccc1` (stereo not drawn), affinity was put at a Ki of 9.3 nM. Still for that read-out and setting: to `C[C@@H](Cc1ccccc1)N(C)CCCCCc1ccccc1` belongs 2.6 nM; to `C[C@@H](N)Cc1ccccc1` [(R)-amphetamine], 46400 nM. For `C[C@@H](Cc1ccccc1)NCCCCCc1ccccc1` [((S)-1-Methyl-2-phenyl-ethyl)-(5-phenyl-pentyl)-amine], the affinity corresponds to a Ki of 6.3 nM.

Another experiment in a line: Binding affinity towards sigma opioid receptor in guinea pig cerebral homogenate using [3H]DTG as radioligand.
In the case of `C[C@H](Cc1ccccc1)NCCc1ccccc1` [((R)-1-Methyl-2-phenyl-ethyl)-phenethyl-amine], the inhibition constant (Ki) came to 60 nM.

A short description of the next experiment: Binding affinity towards sigma opioid receptor was determined in guinea pig cerebral homogenate using [3H]haloperidol as radioligand.
Molecule `C[C@H](Cc1ccccc1)NCCc1ccccc1` [((R)-1-Methyl-2-phenyl-ethyl)-phenethyl-amine] came in with an inhibition constant (Ki) of 61 nM.
